Experiment [1] has as its target Protein phosphatase 3 catalytic subunit alpha (Homo sapiens, UniProt Q08209). Details: species or system Escherichia coli.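 Also: inhibition of calcineurin (PP2B) enzyme activity, measured with DiFMUP as the substrate.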
In experiment [2] the target is Prostaglandin G/H synthase 1 (Homo sapiens, UniProt P23219). The experiment is described as follows: biochemical. Type of experiment: tissue-based, Platelet. The following applies: for IC50 / Ki: platelet.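 As to all read-outs here: inhibition of COX-1 enzyme activity, with arachidonic acid supplied as substrate.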
Sequence of Prostaglandin G/H synthase 1 (P23219 whole entry): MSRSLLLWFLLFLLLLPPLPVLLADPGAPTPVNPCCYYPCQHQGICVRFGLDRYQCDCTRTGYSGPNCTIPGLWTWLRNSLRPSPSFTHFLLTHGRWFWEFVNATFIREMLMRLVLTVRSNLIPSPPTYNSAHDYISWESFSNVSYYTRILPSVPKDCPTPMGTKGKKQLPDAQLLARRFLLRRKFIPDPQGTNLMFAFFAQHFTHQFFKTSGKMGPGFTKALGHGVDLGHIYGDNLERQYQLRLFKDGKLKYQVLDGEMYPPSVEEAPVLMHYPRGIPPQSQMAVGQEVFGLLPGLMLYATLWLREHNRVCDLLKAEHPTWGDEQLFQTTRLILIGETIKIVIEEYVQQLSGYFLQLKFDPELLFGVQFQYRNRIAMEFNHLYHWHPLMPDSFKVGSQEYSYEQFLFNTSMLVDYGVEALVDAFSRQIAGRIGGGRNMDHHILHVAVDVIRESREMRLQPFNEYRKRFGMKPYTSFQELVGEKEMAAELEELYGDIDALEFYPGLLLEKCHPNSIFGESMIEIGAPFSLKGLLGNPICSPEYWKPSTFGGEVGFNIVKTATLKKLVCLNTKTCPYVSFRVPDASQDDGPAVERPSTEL
The next experiment has as its target Glycine receptor (Rattus norvegicus, UniProt P22771+P24524+P07727+P20781). Type of experiment: cell membranes, Wistar, Spinal cord, Membrane.
The target in experiment [3] is T1, Neuropeptide Y receptor type 2 (Homo sapiens, UniProt P49146).
T1 sequence (P49146 whole entry): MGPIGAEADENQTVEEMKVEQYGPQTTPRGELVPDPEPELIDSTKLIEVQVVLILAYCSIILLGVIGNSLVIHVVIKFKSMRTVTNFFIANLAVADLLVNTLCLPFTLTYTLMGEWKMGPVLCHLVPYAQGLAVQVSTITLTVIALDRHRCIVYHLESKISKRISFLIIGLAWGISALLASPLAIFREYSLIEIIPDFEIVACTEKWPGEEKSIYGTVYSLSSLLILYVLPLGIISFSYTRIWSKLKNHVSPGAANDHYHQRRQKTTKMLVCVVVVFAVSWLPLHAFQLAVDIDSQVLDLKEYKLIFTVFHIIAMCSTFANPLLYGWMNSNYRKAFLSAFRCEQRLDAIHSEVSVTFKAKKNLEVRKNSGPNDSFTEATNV
Type of experiment: cell membranes, KAN-TS, Membrane. The following applies: kan-ts.

Another experiment deals with T2, Thromboxane-A synthase (Homo sapiens, UniProt P24557).
T2 sequence (P24557 whole entry): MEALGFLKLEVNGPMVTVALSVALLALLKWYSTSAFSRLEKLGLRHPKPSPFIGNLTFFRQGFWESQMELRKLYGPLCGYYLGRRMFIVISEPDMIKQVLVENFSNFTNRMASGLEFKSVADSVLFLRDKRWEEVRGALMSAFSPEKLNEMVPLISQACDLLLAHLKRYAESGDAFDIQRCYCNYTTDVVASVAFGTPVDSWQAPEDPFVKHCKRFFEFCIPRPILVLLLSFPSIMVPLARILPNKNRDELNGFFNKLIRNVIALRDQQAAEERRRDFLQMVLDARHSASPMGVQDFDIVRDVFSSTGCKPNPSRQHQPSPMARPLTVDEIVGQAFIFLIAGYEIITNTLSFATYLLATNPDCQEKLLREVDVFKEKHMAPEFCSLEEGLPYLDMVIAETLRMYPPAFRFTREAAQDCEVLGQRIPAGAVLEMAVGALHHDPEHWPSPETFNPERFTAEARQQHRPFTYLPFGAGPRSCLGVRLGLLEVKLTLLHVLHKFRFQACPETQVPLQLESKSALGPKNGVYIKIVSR
The experiment is described as follows: biochemical. Type of experiment: tissue-based, Platelet. The settings on record: platelet.

The target in experiment [4] is 5-hydroxytryptamine receptor 1B (Rattus norvegicus, UniProt P28564). It counts as cell membranes, Wistar, Cerebral cortex, Membrane.
Sequence of 5-hydroxytryptamine receptor 1B (P28564 whole entry): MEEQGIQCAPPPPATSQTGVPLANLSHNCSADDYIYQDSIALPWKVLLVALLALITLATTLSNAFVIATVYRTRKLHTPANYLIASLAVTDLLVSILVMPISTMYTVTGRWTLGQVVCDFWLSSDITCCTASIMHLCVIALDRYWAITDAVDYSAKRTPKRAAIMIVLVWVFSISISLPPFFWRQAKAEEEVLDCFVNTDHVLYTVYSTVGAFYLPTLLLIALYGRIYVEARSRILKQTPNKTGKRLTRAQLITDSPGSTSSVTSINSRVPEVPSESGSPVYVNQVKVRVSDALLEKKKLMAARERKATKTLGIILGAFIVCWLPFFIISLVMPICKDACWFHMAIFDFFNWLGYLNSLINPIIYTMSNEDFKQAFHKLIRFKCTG
For the next experiment, the target named is T3, Cathepsin G (Homo sapiens, UniProt P08311).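 Also: inhibition of Cathepsin G enzyme activity, tested on an AMC-conjugated peptide substrate.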
T3 sequence (P08311 whole entry): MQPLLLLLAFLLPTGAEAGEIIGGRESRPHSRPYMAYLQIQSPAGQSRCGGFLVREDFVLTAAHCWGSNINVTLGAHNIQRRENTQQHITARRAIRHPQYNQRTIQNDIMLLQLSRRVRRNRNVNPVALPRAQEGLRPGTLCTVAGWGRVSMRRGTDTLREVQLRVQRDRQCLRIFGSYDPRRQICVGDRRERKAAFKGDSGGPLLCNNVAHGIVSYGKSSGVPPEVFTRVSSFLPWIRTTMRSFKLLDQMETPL
Type of experiment: tissue-based. The settings on record: neutrophil.

The record followed here is ChEMBL document CHEMBL1909046, “DrugMatrix in vitro pharmacology data”.

pIC50: −log10 of the molar value.

Usually pIC50 stands for the negative decadic logarithm of the IC50, by convention in mol/L.
Also: in other assays of this panel Not Active means under 50% inhibition at 10 µM.

In the case of GENTAMICIN, the IC50 entry (in experiment [1]; in experiment [2]; against Glycine receptor; in experiment [3]; against Thromboxane-A synthase; in experiment [4]) was “Not Active” in each case. At Cathepsin G, the IC50 entry was “Not Active”. For the same compound, the Ki result (in experiment [1]; in experiment [2]; at Glycine receptor; in experiment [3]; on Thromboxane-A synthase; in experiment [4]) was “Not Active” throughout. Further, on Cathepsin G, the Ki entry is recorded as “Not Active”.
With `CC(=O)Oc1ccc(C(c2ccc(OC(C)=O)cc2)c2ccccn2)cc1` [BISACODYL], the IC50 result (in experiment [1]; in experiment [2]; against Glycine receptor; in experiment [3]; on Thromboxane-A synthase; in experiment [4]) was “Not Active” in each case. In addition, the IC50 result on Cathepsin G was “Not Active”.
Consider `C[C@@H]1O[C@@H](O[C@@H]2C=C3CC[C@@H]4[C@H](CC[C@]5(C)[C@@H](c6ccc(=O)oc6)CC[C@]45O)[C@@]3(C)CC2)[C@H](O)[C@H](O)[C@H]1O` [PROSCILLARIDIN], for which the IC50 result (in experiment [1]; in experiment [2]; on Glycine receptor; in experiment [3]; on Thromboxane-A synthase; in experiment [4]) was “Not Active” each time. The IC50 result against Cathepsin G is given as “Not Active”.
As to `C[C@@H]1C[C@H]2[C@@H]3CCC4=CC(=O)C=C[C@]4(C)[C@@]3(F)[C@@H](O)C[C@]2(C)[C@@]1(O)C(=O)CO` [DEXAMETHASONE], the IC50 result (in experiment [1]; in experiment [2]; against Glycine receptor; in experiment [3]; against Thromboxane-A synthase; in experiment [4]) was “Not Active” in each case. In addition, the IC50 result against Cathepsin G is reported as “Not Active”.
`C[n+]1ccc(-c2cc[n+](C)cc2)cc1.[Cl-].[Cl-]` [PARAQUAT DICHLORIDE]: the IC50 result (in experiment [1]; in experiment [2]; against Glycine receptor; in experiment [3]; against Thromboxane-A synthase; in experiment [4]) was “Not Active” throughout. Further, the IC50 result against Cathepsin G is given as “Not Active”.
With `Cc1cc2c(OCC(CNC(C)(C)C)OC(=O)c3ccccc3)cccc2[nH]1` (stereo not given) [BOPINDOLOL], the IC50 entry (in experiment [1]; in experiment [2]; at Glycine receptor; in experiment [3]; on Thromboxane-A synthase; in experiment [4]) was “Not Active” each time. In addition, on Cathepsin G, the IC50 result is “Not Active”.
Regarding `Nc1ccn([C@@H]2O[C@H](CO)[C@@H](O)C2(F)F)c(=O)n1` [GEMCITABINE], the IC50 result (in experiment [1]; in experiment [2]; on Glycine receptor; in experiment [3]; against Thromboxane-A synthase; in experiment [4]) was “Not Active” in each case. At Cathepsin G, the IC50 result was “Not Active”.
Consider `Nc1ccn([C@@H]2O[C@H](CO)[C@@H](O)[C@@H]2O)c(=O)n1` [CYTARABINE], for which the IC50 result (in experiment [1]; in experiment [2]; at Glycine receptor; in experiment [3]; against Thromboxane-A synthase; in experiment [4]) was “Not Active” throughout. The IC50 entry against Cathepsin G is reported as “Not Active”.
Consider GADOPENTETATE DIMEGLUMINE, for which the IC50 result (in experiment [1]; in experiment [2]; at Glycine receptor; in experiment [3]; at Thromboxane-A synthase; in experiment [4]) was “Not Active” in each case. Besides, the IC50 result against Cathepsin G is given as “Not Active”. In addition, the Ki entry (in experiment [1]; in experiment [2]; on Glycine receptor; in experiment [3]; on Thromboxane-A synthase; in experiment [4]) was “Not Active” each time. In addition, the Ki entry on Cathepsin G is on record as “Not Active”.
For the compound `C=CCc1ccc(O)c(OC)c1` [EUGENOL], the IC50 entry (in experiment [1]; in experiment [2]; at Glycine receptor; in experiment [3]; against Thromboxane-A synthase; in experiment [4]) was “Not Active” each time. In addition, on Cathepsin G, the IC50 result was “Not Active”.
Turning to `CCn1cc(C(=O)O)c(=O)c2cnc(N3CCCC3)nc21` [PIROMIDIC ACID], the IC50 result (in experiment [1]; in experiment [2]; against Glycine receptor; in experiment [3]; on Thromboxane-A synthase; in experiment [4]) was “Not Active” throughout. Moreover, the IC50 entry against Cathepsin G is “Not Active”.
On to `CC(C)c1cccc(C(C)C)c1O` [PROPOFOL], for which the IC50 entry (in experiment [1]; against Glycine receptor; in experiment [3]; against Thromboxane-A synthase; in experiment [4]; against Cathepsin G) was “Not Active” each time. Further, the pIC50 in experiment [2] (read-out: IC50) was 5.42.
On to `COC(=O)Nc1nc2ccc(C(=O)c3cccs3)cc2[nH]1` [NOCODAZOLE], for which the IC50 entry (in experiment [1]; in experiment [2]; on Glycine receptor; in experiment [3]; against Thromboxane-A synthase; in experiment [4]) was “Not Active” each time. On Cathepsin G, the IC50 entry is “Not Active”.
On to AURANOFIN, for which the IC50 entry (in experiment [1]; in experiment [2]; against Glycine receptor; in experiment [3]; on Thromboxane-A synthase; in experiment [4]) was “Not Active” each time. Further, the IC50 result on Cathepsin G is “Not Active”. The Ki entry (in experiment [1]; in experiment [2]; on Glycine receptor; in experiment [3]; at Thromboxane-A synthase; in experiment [4]) was “Not Active” in each case. The Ki result at Cathepsin G is recorded as “Not Active”.
Regarding `Cc1nnc2n1-c1ccc(Cl)cc1C(c1ccccc1)=NC2` [ALPRAZOLAM], the IC50 entry (in experiment [1]; in experiment [2]; at Glycine receptor; in experiment [3]; at Thromboxane-A synthase; in experiment [4]) was “Not Active” each time. The IC50 entry against Cathepsin G is on record as “Not Active”.
For `CC(=O)[C@H]1[C@H](C#N)C[C@H]2[C@@H]3CC=C4C[C@@H](O)CC[C@]4(C)[C@H]3CC[C@@]21C` [PREGNENOLONE CARBONITRILE], the IC50 entry (in experiment [1]; in experiment [2]; on Glycine receptor; in experiment [3]; on Thromboxane-A synthase; in experiment [4]) was “Not Active” in each case. Further, the IC50 result against Cathepsin G was “Not Active”.
Take `C[C@@H]1CC[C@@]2(OC1)O[C@H]1[C@@H](O)[C@H]3[C@@H]4CC[C@H]5C[C@@H](O[C@@H]6O[C@H](CO)[C@H](O[C@@H]7O[C@H](CO)C(O)[C@H](O[C@@H]8OC[C@@H](O)[C@H](O)[C@H]8O)[C@H]7O[C@@H]7O[C@H](CO)[C@H](O)[C@H](O[C@@H]8O[C@H](CO)[C@@H](O)[C@H](O)[C@H]8O)[C@H]7O)[C@H](O)[C@H]6O)[C@H](O)C[C@]5(C)[C@H]4CC[C@]3(C)[C@H]1[C@@H]2C` (stereo not given in full) [DIGITONIN]: the IC50 entry (in experiment [1]; in experiment [2]; on Glycine receptor; in experiment [3]; against Thromboxane-A synthase; in experiment [4]) was “Not Active” in each case. In addition, the IC50 result against Cathepsin G is listed as “Not Active”.
